From patent US20130102838A1, “Oocyte Spindle-Associated Factors Improve Somatic Cell Cloning” (WORCESTER POLYTECHNIC INSTITUTE, priority 2007, published 2013)

Tests used:
[1] = tested on: Metaphase II oocytes; assay: Induced enucleation of activated Metaphase II oocytes (2nd polar body extrusion); assay type: cell-based; details: MII oocytes activated with 7% EtOH or 2 μM ionomycin; Taxol 5 μg/mL, cycloheximide 10 μg/mL, demecolcine 0.4 μg/mL; control 3.7%
Protocol: Metaphase II oocytes are activated with 7% EtOH or 2 μM ionomycin, followed by treatment with Taxol (5 μg/mL), or cycloheximide (10 μg/mL) or demecolcine (0.4 μg/mL), resulting in the 2nd polar body extrusion.
With demecoleine-induced enucleation, activated oocytes are treated with the microttibuline destabilizing drug, demecolcine. The resulting cytoplasts are competent to support term developments. Often, cytoplasts fail to complete the second polar body extrusion. Induced enucleation can take place, just prior to activation or just after activation.

[2] = tested on: Apc11; assay: Effect of demecolcine on Apc11 spatial localization in mouse oocytes; assay type: cell-based; details: 0.4 μg/mL, SrCl2-activated oocytes, AII, TII, Interphase
Protocol: (§1) In order to induce superovulation in donor mice, female CF-1 mice (Charles River Laboratories) of breeding age were injected with Pregnant Mare Serum Gonadotropin (PMSG, Calbiochem) and Human Chorionic Gonadotropin (hCG, Calbiochem). For both hormones, 5IU was administered per mouse via intraperitioneal injection. PMSG was injected 64 hours before collection and hCG was given 48 hours later. Oviducts were dissected from mice euthanized by CO2 asphyxiation and placed in FHM media (Chemicon) at 37° C. Oocytes were separated from surrounding cumulus cells by a brief exposure to bovine hyaluronidase (HA, Sigma, 150 units/ml, <10 minutes). Oocytes with poor morphology (lysed, fragmented, dark pigmentation) were discarded. Oocytes were washed three times in FHM media and randomly sorted into treatment groups. Some oocytes were immediately fixed (see below) at Metaphase of Meiosis II (MII). […]
(§2) To localize Apc11, a polyclonal antibody raised in rabbits against N-terminal amino acids of human Apc11 (Santa Cruz) was used as a primary antibody. […] Imaging was accomplished on a Zeiss Axiovert 200M inverted fluorescence microscope coupled to a Roper CoolSnapFx camera through a 63× oil emersion objective and 10× eyepiece/camera lens. […]

[3] = tested on: meiotic spindle; assay: Effect of demecolcine on meiotic spindle and chromatin in activated mouse oocytes; assay type: cell-based; details: 0.4 μg/mL, SrCl2-activated oocytes
Protocol: as §1, §2

[4] = tested on: Rec8; assay: Effect of demecolcine on Rec8 localization in mouse oocytes; assay type: cell-based; details: 0.4 μg/mL, SrCl2-activated oocytes
Protocol: (§3) In order to induce superovulation in donor mice, female CF-1 mice (Charles River Laboratories) of breeding age were injected with Pregnant Mare Serum Gonadotropin (PMSG, Calbiochem) and Human Chorionic Gonadotropin (hCG, Calbiochem). For both hormones, 5IU was administered per mouse via intraperitioneal injection. PMSG was injected 64 hours before collection and hCG was given 48 hours later. Oviducts were dissected from mice euthanized by CO2 asphyxiation and placed in FHM media (Chemicon) at 37° C. Oocytes were separated from surrounding cumulus cells by a brief exposure to bovine hyaluronidase (HA, Sigma, 150 units/ml, <10 minutes). Oocytes with poor morphology (lysed, fragmented, dark pigmentation) were discarded. Oocytes were washed three times in FHM media and randomly sorted into treatment groups. Some oocytes were immediately fixed (see below) at Metaphase of Meiosis II (MII).
(§4) For SrCl2 activation, the denuded oocytes were washed 3 times in FHM, 3 to 4 times in KSOM (without Ca^+2, Chemicon) equilibrated to 37° C. in 5% CO2, and then incubated in KSOM containing 10 mM strontium chloride at 37° C. with 5% CO2. After 15 minutes, some oocytes, depending on experimental design, were transferred to KSOM containing both SrCl2 (10 mM) and demecolcine (0.4 μg/mL) and incubated at 37° C. with 5% CO2. […]

[5] = tested on: Cdc20; assay: Effect of demecolcine on Cdc20 localization in mouse oocytes; assay type: cell-based; details: 0.4 μg/mL, SrCl2-activated oocytes, throughout development
Protocol: as §3, §4

[6] = tested on: mouse oocytes arrested at MII; details: standard ethanol activation protocol, data not shown

CC(=O)O[C@H]1C(=O)[C@@]2(C)[C@H]([C@H](OC(=O)c3ccccc3)[C@]3(O)C[C@H](OC(=O)[C@H](O)[C@@H](NC(=O)c4ccccc4)c4ccccc4)C(C)=C1C3(C)C)[C@]1(OC(C)=O)CO[C@@H]1C[C@@H]2O [Taxol]
induced enucleation, 2nd polar body extrusion [1]: 3.6%

C[C@@H]1C[C@@H]([C@H](O)CC2CC(=O)NC(=O)C2)C(=O)[C@@H](C)C1 [cycloheximide]
induced enucleation, 2nd polar body extrusion [1]: 16.3%

CN[C@H]1CCc2cc(OC)c(OC)c(OC)c2-c2ccc(OC)c(=O)cc21 [demecolcine]
Apc11 staining pattern [2]: non-distinct ataxia across the entire oocyte with no evidence of colocalization in any stage of development | induced enucleation, 2nd polar body extrusion [1]: 54% | extrusion of chromatin ([3]; Interphase (FIG. 16)): completely extrudes its chromatin in the second polar body | meiotic spindle integrity ([3]; compared to control eggs): severely disrupted | Rec8 localization during Anaphase ([4]; Anaphase II): aggregate in an area surrounding the chromatin, but not directly over it | Rec8 localization during Telophase ([4]; Telophase II, continues into Interphase): direct colocalization (purple spots) with the chromatin | Cdc20 staining pattern [5]: low levels of muddled signal across the cytoplasm

CCO [ethanol]
eggs per experiment that failed to leave MII [6]: ≤ 50%
